# Like-named read-outs stand apart in the source and are kept apart here. Marks after values point to notes of the source that are not given here.
# Experiments:
# peritoneal macrophages [1] = experiment: NBT reduction assay in peritoneal macrophages, cyclophosphamide-induced immunosuppression (Example II); assay type: in vivo, Swiss albino mice
# Experimental: (§1) The mice were acclimatized for one week in the laboratory conditions, before being used in the experiment. All experiments were conducted between 10.00 hr and 14.00 hr. Principles of laboratory animal care (NIH publication no. 85-23, revised 1985) were followed.
# (§2) All test compounds (DBPs and DBP glycosides) were suspended in 0.3% of CMC (Carboxymethyl Cellulose) solutions of distilled water and were administered orally for 7 days by using an intubation canula. The volume of dose was 100 μl/10 g body weight. Cyclophosphamide was dissolved in distilled water and was injected (250 mg/kg, i.p.) on day one and volume of dose was 100 μl/10 g body weight. Control animals received equivalent volume of the vehicles CMC (0.3%) solutions only.
# On day seven all the animals were sacrificed under ether anesthesia and peritoneal macrophages were lavaged using ice cold phosphate buffer saline (PBS: 0.15M NaCl pH-7.4). After centrifugation (3000 rpm×10 min) at 4° C. the pellet was re-suspended in PBS and cell viability was confirmed by trypan blue exclusion method. (Bala A, Haldar P K, Kar B, Naskar S and Mazumder U K, “Carbon tetrachloride: A hepatotoxin causes oxidative stress in murine peritoneal macrophage and peripheral blood lymphocyte cells” Immunopharmacol. and Immunotoxicol. 34(1): 157-162 (2012)).
# Preparation of NBT solution: 0.2% NBT (nitroblue tetrazolium) in PB (Phosphate Buffer, pH 7.4), 5% dextrose and HBSS (Hank's balanced salt solution). The three solutions were mixed in 6:2:4 ratios. (Saxena A K, Singh K P, Srivastava S N, Shukla L J and Shanker R., “Immunomodulating effects of caffeine in rodents” Ind J Exptl Biol. 22: 298-301 (1984)).
# Method: 0.5 ml of NBT solution was added to 0.5 ml of peritoneal macrophages (1×10^6 cells/ml) in a micro-centrifuge tube. This mixture was incubated at 37° C. for 45 minutes. The cell suspension was centrifuged at 1500 rpm for 10 minutes. Supernatant was discarded and pellet was re-suspended in 2 ml of DMSO. The tubes were kept in a boiling water bath for 10 minutes. The tubes were again centrifuged at 1500 rpm for 10 minutes. The supernatant was collected, and absorbance was measured at 515 nm.
# splenocytes [2] = experiment: Cell viability of splenocytes, trypan blue exclusion, cyclophosphamide-induced immunosuppression (Example II); assay type: in vivo, Swiss albino mice
# Experimental: as §1, §2
# Spleen was collected. Single cell suspension was prepared by mincing and tapping the spleen fragments on stainless steel 200-mesh in ice cold phosphate buffer saline (PBS: 0.15M NaCl pH 7.4). Cell suspension was centrifuged at 2000 rpm for 10 minutes. The pellet was re-suspended in PBS and cell viability was confirmed by trypan blue exclusion method.
# [3] = for Body Weight (gm) Day 0 / Feed Intake (gm) Day 0 / Water Intake (ml) Day 0 / Body Weight (gm) Day 7 / Feed Intake (gm) Day 7 / Water Intake (ml) Day 7: cyclophosphamide 250 mg/kg i.p. alone; for feed intake compared to vehicle control: 3,8-(OH)2-DBP 50 mg/kg
# Experimental: (§3) Male and female Swiss albino mice (n=8; 4 from each gender) weighing approximately 25±5 g, were obtained from National Research Institute of Ayurveda for Drug Development (Govt. of India), Kolkata, and were housed in polypropylene cages at 22±3° C., relative air humidity of 45 to 55%, with 12.00 h light & dark cycle (lighting on from 6:00 AM to 6:00 PM). […] The mice were acclimatized for one week in the laboratory conditions, before being used in the experiment. All experiments were conducted between 10.00 h and 14.00 h. Principles of laboratory animal care (NIH publication no. 85-23, revised 1985) was followed.
# (§4) Cyclophosphamide was dissolved in distilled water and the mice were administered a single exposure (250 mg/kg, i.p.) on day 1.
# (§5) 3-OH-DBP, 3,8-(OH)2-DBP, and combined 3-OH-DBP+3,8-(OH)2-DBP were administered once daily for 7 days starting from day 1. Following 7 days of treatment the mice were anaesthetized and sacrificed under anaesthesia followed by collection of peritoneal macrophages and spleen (for splenocyte isolation).
# (§6) Swiss albino mice were randomly divided into 8 Groups (n=8; 4 from each gender). […] (2:10) (12 mg/kg b.w., p.o.), Group VI mice were administered 3-OH-DBP (10 mg/kg b.w., p.o.), Group VII mice were administered 3,8-(OH)2-DBP (50 mg/kg b.w., p.o.), Group VIII mice were administered [3-OH-DBP+3,8-(OH)2-DBP] (10:50) (60 mg/kg b.w., p.o.).
# (§7) Results were expressed in terms of mean±SEM (n=8; 4 from each gender). Data were subjected to one way ANOVA followed by Tukey's test using GraphPad Prism 4.0 software to establish statistical significance (*p<0.05, **p<0.01, ***p<0.001, where * refers to comparison with Group I vehicle control; #p<0.05, ##p<0.01, ###p<0.001, where #refers to comparison with Group II cyclophosphamide administration; ^ap<0.05, ^aap<0.01, ^aap<0.01, where a refers to comparison of Day 7 with Day 0).
# peritoneal macrophages [4] = experiment: Peritoneal macrophage viability, trypan blue exclusion (Example III); assay type: in vivo, Swiss albino mice; conditions: for % Viability Day 7, peritoneal macrophage viability: cyclophosphamide 250 mg/kg i.p. alone
# Experimental: as §3, §4, §5, §6
# (§8) All the animals were sacrificed under ether anesthesia and peritoneal macrophages were lavaged using ice cold phosphate buffer saline (PBS: 0.15 M NaCl; pH: 7.4). After centrifugation (3000 rpm×10 min) at 4° C., pellets were re-suspended in PBS and cell viability was confirmed by trypan blue exclusion assay.
# as §7
# peritoneal macrophages [5] = experiment: NBT reduction of peritoneal macrophages (Example III); assay type: in vivo, Swiss albino mice; conditions: for NBT reduction compared with vehicle control: cyclophosphamide, 3-OH-DBP 2 and 10 mg/kg, combined 12 mg/kg
# Experimental: as §3, §4, §5, §6, §8
# Preparation of NBT solution: 0.2% NBT (nitroblue tetrazolium) in PBS (pH 7.4), 5% dextrose and HBSS. These three solutions were mixed in 6:2:4 ratios.
# 0.5 ml of NBT solution was added to 0.5 ml of peritoneal macrophages (1×10^6 cells/ml) in micro-centrifuge tube. This mixture was incubated at 37° C. for 2 hours. The cell suspension was centrifuged at 2000 rpm for 10 minutes. Supernatants were discarded and pellets were re-suspended in 1 ml of DMSO. The tubes were kept in boiling water bath for 10 minutes and then cooled and centrifuged at 2000 rpm for 10 minutes. The supernatants were collected and absorbance was measured at 515 nm.
# as §7
# splenocytes [6] = experiment: Splenocyte viability, trypan blue exclusion (Example III); assay type: in vivo, Swiss albino mice; conditions: for % Viability Day7, splenocyte viability: Day 7, cyclophosphamide 250 mg/kg i.p. alone
# Experimental: as §3, §4, §5, §6
# Spleens were collected and single cell suspension was prepared by mincing and tapping the spleen fragments on stainless steel 200-mesh in ice cold phosphate buffer saline (PBS: 0.15M NaCl; pH: 7.4). Cell suspensions were centrifuged at 2000 rpm for 10 minutes.
# as §7
# [7] = cyclophosphamide 250 mg/kg i.p. day one, alone, day 7, Mean ± SD, n = 6
# [8] = female mice, cyclophosphamide alone
compound,measurement,setting,value
"O=P1(N(CCCl)CCCl)NCCCO1 (stereo not shown) [Cyclophosphamide, reference compound]","OD (515 nm), NBT reduction assay in peritoneal macrophages",peritoneal macrophages [1]; [7],0.117 ± 0.015
same,NBT reduction capacity of peritoneal macrophages,peritoneal macrophages [1]; cyclophosphamide alone vs CMC control,significant (p<0.001) decrease
same,% Cell Viability of splenocytes,splenocytes [2]; [7],51.12 ± 4.69 %
same,splenocyte viability,splenocytes [2]; cyclophosphamide alone vs control,significantly (p<0.01) decreased
same,Body Weight (gm) Day 0,[3]; female mice,23.00 ± 1.89 gm
same,Feed Intake (gm) Day 0,[3]; female mice,28.50 ± 0.96 gm
same,Water Intake (ml) Day 0,[3]; female mice,3.620 ± 0.16 mL
same,Body Weight (gm) Day 7,[3]; female mice,21.75 ± 0.63 gm
same,Feed Intake (gm) Day 7,[3]; female mice,24.71 ± 0.41^a gm
same,Water Intake (ml) Day 7,[3]; female mice,6.425 ± 0.48 mL
same,feed intake compared to vehicle control,"[3]; female mice, cyclophosphamide, 3-OH-DBP 10 mg/kg","significantly (p<0.05, p<0.01) decreased"
same,Body Weight (gm) Day 0,[3]; male mice,30.75 ± 1.89 gm
same,Feed Intake (gm) Day 0,[3]; male mice,28.50 ± 0.96 gm
same,Water Intake (ml) Day 0,[3]; male mice,6.125 ± 0.16 mL
same,Body Weight (gm) Day 7,[3]; male mice,30.50 ± 2.18 gm
same,Feed Intake (gm) Day 7,[3]; male mice,26.81 ± 0.86^a gm
same,Water Intake (ml) Day 7,[3]; male mice,"5.863 ± 0.15*,## ml"
same,feed intake compared to vehicle control,"[3]; male mice, cyclophosphamide, 3-OH-DBP 10 mg/kg","significantly (p<0.05, p<0.01) decreased"
same,feed intake Day 7 in comparison to Day 0,"[3]; male mice, cyclophosphamide, 3-OH-DBP 10 mg/kg, 3,8-(OH)2-DBP 10 and 50 mg/kg","significantly (p<0.05, p<0.01) decreased"
same,"% Viability Day 7, peritoneal macrophage viability",peritoneal macrophages [4]; female mice,58.19 ± 0.60** %
same,peritoneal macrophage viability compared with vehicle control,peritoneal macrophages [4]; [8],significantly (p<0.05) decreased
same,"% Viability Day 7, peritoneal macrophage viability",peritoneal macrophages [4]; male mice,55.72 ± 2.18* %
same,peritoneal macrophage viability compared with vehicle control,"peritoneal macrophages [4]; male mice, cyclophosphamide, 3-OH-DBP 2 mg/kg, 3,8-(OH)2-DBP 10 mg/kg",significantly (p<0.05) decreased
same,"O.D. (515 nm) Day 7, NBT reduction of peritoneal macrophages","peritoneal macrophages [5]; female mice, Day 7, cyclophosphamide 250 mg/kg i.p. alone",0.119 ± 0.005***
same,NBT reduction compared with vehicle control,"peritoneal macrophages [5]; female mice, 3,8-(OH)2-DBP 10 and 50 mg/kg","significantly (p<0.05, p<0.01, p<0.001) decreased"
same,"O.D (515 nm) Day 7, NBT reduction of peritoneal macrophages","peritoneal macrophages [5]; male mice, Day 7, cyclophosphamide 250 mg/kg i.p. alone",0.209 ± 0.02419***
same,NBT reduction compared with vehicle control,"peritoneal macrophages [5]; male mice, 3,8-(OH)2-DBP 10 mg/kg","significantly (p<0.01, p<0.001) decreased"
same,"% Viability Day7, splenocyte viability",splenocytes [6]; female mice,79.70 ± 1.58*** %
same,splenocyte viability compared with vehicle control,splenocytes [6]; [8],significantly (p<0.001) decreased
same,"% Viability Day7, splenocyte viability",splenocytes [6]; male mice,70.22 ± 0.98*** %
same,splenocyte viability compared with vehicle control,"splenocytes [6]; male mice, cyclophosphamide, 2 mg/kg 3-OH-DBP, 10 mg/kg 3,8-(OH)2-DBP, 12 mg/kg combined",significantly (p<0.001) decreased

# — US20220098228A1, “METHODS AND COMPOSITIONS FOR IMPROVING THE IMMUNE SYSTEM AND PROVIDING IMMUNO-PROTECTION” (Natreon, Inc., priority 2020, published 2022)
